# From patent publication US20080227797A1, “Pyridopyrimidine Derivatives as Pde4 Inhibitors for the Treatment of Inflammatory and Immune Diseases” (ASTRAZENECA AB, priority 2005, published 2008)
# Molecular target: recombinant Human Phosphodiesterase B2 (PDE4B2) (Homo sapiens, UniProt Q07343)
# Experiment: Human Phosphodiesterase B2 Alpha Screen Assay
# Type: biochemical
# Settings: cAMP substrate, Alpha Screen cAMP kit, 60 minutes at room temperature
# Experimental: Human Phosphodiesterase B2 Alpha Screen Assay
# The assay uses recombinant Human Phosphodiesterase B2 (PDE4B2) produced in house (PrAZL0133), stored at −20° C. The substrate uses cAMP, part of the Alpha Screen cAMP kit (Perkin Elmer, Cat# 6760625M), stored at 4° C. The Alpha Screen kit also includes biotinylated cAMP, acceptor and donor beads.
# The assay additions were as follows: Test compounds and controls were added to white 384-well flat-bottom plates (Greiner, Cat# 781075), 0.2 μl in 100% DMSO, followed by 10 μl PDE4B2 in reaction buffer. The reaction buffer constitution was: 50 mM Tris (pH 7.5), 8.3 mM MgCl2, 1.7 mM EGTA and 0.01% (w/v) Brij®35. The enzyme and the compounds were incubated at room temperature for 15 minutes. Then 10 μl cAMP in reaction buffer was added. The assay was stopped after 60 minutes incubation at room temperature by adding 10 μl acceptor beads in detection buffer with 40 mM EDTA. The detection buffer constitution was: 5 mM Tris (pH 7.5), 0.1% (w/v) BSA and 0.1% (v/v) Tween 20. This addition followed by an addition of 10 μl donor beads in detection buffer, with biotinylated cAMP. The plates were then incubated, dark at room temperature, for 5 hours followed by measurement on a Fusion™-α analyser. IC50 values (presented in Table 1) were determined using Xlfit curve fitting using model 205.
# Chain of recombinant Human Phosphodiesterase B2 (PDE4B2) (Q07343 1-564 isoform Q07343-2): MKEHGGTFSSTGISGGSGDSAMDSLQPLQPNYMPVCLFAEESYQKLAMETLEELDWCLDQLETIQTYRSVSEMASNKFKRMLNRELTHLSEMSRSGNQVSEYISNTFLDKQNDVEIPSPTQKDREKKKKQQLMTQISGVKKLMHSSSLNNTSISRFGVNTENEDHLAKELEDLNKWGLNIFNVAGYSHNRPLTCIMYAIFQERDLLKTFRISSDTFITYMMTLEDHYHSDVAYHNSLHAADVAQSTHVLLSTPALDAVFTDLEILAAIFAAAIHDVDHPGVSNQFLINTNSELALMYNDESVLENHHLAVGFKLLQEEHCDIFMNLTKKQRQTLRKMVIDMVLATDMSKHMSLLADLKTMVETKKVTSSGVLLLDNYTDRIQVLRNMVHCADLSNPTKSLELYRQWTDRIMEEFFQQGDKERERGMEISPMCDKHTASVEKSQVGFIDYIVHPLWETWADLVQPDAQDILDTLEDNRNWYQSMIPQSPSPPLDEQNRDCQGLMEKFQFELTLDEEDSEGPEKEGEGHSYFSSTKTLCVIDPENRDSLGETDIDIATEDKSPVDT
row,SMILES,IC50 [nM]
1,"O=C(CNC(=O)c1ccccc1O)N[C@H]1CC[C@@H](n2c(=O)c3cc(F)cnc3n(-c3ccc(F)c(F)c3)c2=O)CC1 [Example 24, N-[2-({cis-4-[1-(3,4-difluorophenyl)-6-fluoro-2,4-dioxo-1,4-dihydropyrido[2,3-d]pyrimidin-3(2H)-yl]cyclohexyl}amino)-2-oxoethyl]-2-hydroxybenzamide]",0.6
2,"COC(=O)c1ccc(C(=O)N[C@H]2CC[C@@H](n3c(=O)c4cc(F)cnc4n(-c4ccc(F)c(F)c4)c3=O)CC2)cc1 [Example 25, methyl 4-[({cis-4-[1-(3,4-difluorophenyl)-6-fluoro-2,4-dioxo-1,4-dihydropyrido[2,3-d]pyrimidin-3(2H)-yl]cyclohexyl}amino)carbonyl]benzoate]",1.9
3,"COc1ccc(C(=O)N[C@H]2CC[C@@H](n3c(=O)c4cc(F)cnc4n(-c4ccc(F)c(F)c4)c3=O)CC2)cc1O [Example 26, N-{cis-4-[1-(3,4-difluorophenyl)-6-fluoro-2,4-dioxo-1,4-dihydropyrido[2,3-d]pyrimidin-3(2H)-yl]cyclohexyl}-3-hydroxy-4-methoxybenzamide]",1
4,"COC(=O)CCCC(=O)N[C@H]1CC[C@@H](n2c(=O)c3cc(F)cnc3n(-c3ccc(F)c(F)c3)c2=O)CC1 [Example 27, methyl 5-({cis-4-[1-(3,4-difluorophenyl)-6-fluoro-2,4-dioxo-1,4-dihydropyrido[2,3-d]pyrimidin-3(2H)-yl]cyclohexyl}amino)-5-oxopentanoate]",1.7
5,"O=C(Cc1cccc(O)c1)N[C@H]1CC[C@@H](n2c(=O)c3cc(F)cnc3n(-c3ccc(F)c(F)c3)c2=O)CC1 [Example 28, N-{cis-4-[1-(3,4-difluorophenyl)-6-fluoro-2,4-dioxo-1,4-dihydropyrido[2,3-d]pyrimidin-3(2H)-yl]cyclohexyl}-2-(3-hydroxyphenyl)acetamide]",0.9
6,"COC(=O)c1cccc(C(=O)N[C@H]2CC[C@@H](n3c(=O)c4cc(F)cnc4n(-c4ccc(F)c(F)c4)c3=O)CC2)c1 [Example 29, methyl 3-[({cis-4-[1-(3,4-difluorophenyl)-6-fluoro-2,4-dioxo-1,4-dihydropyrido[2,3-d]pyrimidin-3(2H)-yl]cyclohexyl}amino)carbonyl]benzoate]",1.2
7,"O=C(N[C@H]1CC[C@@H](n2c(=O)c3cc(F)cnc3n(-c3ccc(F)c(F)c3)c2=O)CC1)c1c(O)cccc1F [Example 30, N-{cis-4-[1-(3,4-difluorophenyl)-6-fluoro-2,4-dioxo-1,4-dihydropyrido[2,3-d]pyrimidin-3(2H)-yl]cyclohexyl}-2-fluoro-6-hydroxybenzamide]",1.1
8,"O=C(CCc1cccc(O)c1)N[C@H]1CC[C@@H](n2c(=O)c3cc(F)cnc3n(-c3ccc(F)c(F)c3)c2=O)CC1 [Example 31, N-{cis-4-[1-(3,4-difluorophenyl)-6-fluoro-2,4-dioxo-1,4-dihydropyrido[2,3-d]pyrimidin-3(2H)-yl]cyclohexyl}-3-(3-hydroxyphenyl)propanamide]",1.5
9,"O=C(N[C@H]1CC[C@@H](n2c(=O)c3cc(F)cnc3n(-c3ccc(F)c(F)c3)c2=O)CC1)c1n[nH]c2ccccc12 [Example 32, N-{cis-4-[1-(3,4-difluorophenyl)-6-fluoro-2,4-dioxo-1,4-dihydropyrido[2,3-d]pyrimidin-3(2H)-yl]cyclohexyl}-1H-indazole-3-carboxamide]",0.6
10,"O=C(N[C@H]1CC[C@@H](n2c(=O)c3cc(F)cnc3n(-c3ccc(F)c(F)c3)c2=O)CC1)c1cn2ccccc2n1 [Example 33, N-{cis-4-[1-(3,4-difluorophenyl)-6-fluoro-2,4-dioxo-1,4-dihydropyrido[2,3-d]pyrimidin-3(2H)-yl]cyclohexyl}imidazo[1,2-a]pyridine-2-carboxamide]",0.5
11,"CSc1cccc(-n2c(=O)n([C@H]3CC[C@@H](NC(=O)c4cc(Cl)ccc4O)CC3)c(=O)c3cc(F)cnc32)c1 [Example 34, 5-chloro-N-{cis-4-[6-fluoro-1-[3-(methylthio)phenyl]-2,4-dioxo-1,4-dihydropyrido[2,3-d]pyrimidin-3(2H)-yl]cyclohexyl}-2-hydroxybenzamide]",3.2
